# Assay results from US5837868A, “Process for preparation of chiral 3-amino-pyrrolidine and analogous bicyclic compounds” (Abbott Laboratories, priority 1997, dated 1998).
# Where a name gives a salt, the structure may show the parent alone. Read-outs that look alike come from different tables or passages of the source.
# Columns and labels:
# [1] = system: P. aeruginosa BMH 10; assay: In vitro antibacterial activity, agar dilution MIC; assay type: cell-based
# Description: (§1) Each plate was inoculated with 1:100 (or 1:10 for slow-growing strains, primarily Micrococcus and Streptococcus) dilutions of up to 32 different microorganisms, using a Steers replicator block calibrated to deliver approximately 10^4 colony forming units (CFUs). The inoculated plates were incubated at from about 35° C. to about 37° C. for approximately 20-24 hours. In addition, a control plate using BHI agar containing no test compound was prepared and incubated at the beginning and at the end of each test. The quinolone antibacterial ciprofloxacin was used as a control ("Cntl").
# (§2) The MIC was defined as the lowest concentration of test compound yielding no growth (a slight haze or sparsely isolated colonies at the inoculum spot) as compared to the growth control containing no test compound.
# [2] = system: E. coli SS; assay: In vitro antibacterial activity, agar dilution MIC; assay type: cell-based
# Description: as §1, §2
# [3] = system: Nocardia asteroides ATCC 9970; assay: In vitro antibacterial activity, agar dilution MIC; assay type: cell-based
# Description: as §1, §2
# [4] = system: Staph. epidermidis 3519; assay: In vitro antibacterial activity, agar dilution MIC; assay type: cell-based
# Description: as §1, §2
# [5] = system: P. aeruginosa 5263; details: BHI agar dilution, 20-24 hours
# Description: as §1, §2
# [6] = system: Strep. pyogenes 2548 INDUC; assay: microbe, parasite or virus in culture; assay type: cell-based
# Description: as §1, §2
# [7] = system: Staph. aureus CMX 553; assay: In vitro antibacterial activity, agar dilution MIC; assay type: cell-based
# Description: as §1, §2
# [8] = system: Staph. aureus ATCC 6538P; assay: In vitro antibacterial activity, agar dilution MIC; assay type: cell-based
# Description: as §1, §2
# [9] = system: Entero. faecium ATCC 8043; assay: In vitro antibacterial activity, agar dilution MIC; assay type: cell-based
# Description: as §1, §2
# [10] = system: Providencia stuartii CMX 640; assay: In vitro antibacterial activity, agar dilution MIC; assay type: cell-based
# Description: as §1, §2
# [11] = system: P. aeruginosa K799/61; assay: In vitro antibacterial activity, agar dilution MIC; assay type: cell-based
# Description: as §1, §2
# [12] = system: M. luteus ATCC 9341; assay: In vitro antibacterial activity, agar dilution MIC; assay type: cell-based
# Description: as §1, §2
# [13] = system: Staph. aureus A5177; assay: In vitro antibacterial activity, agar dilution MIC; assay type: cell-based
# Description: as §1, §2
# [14] = system: E. coli KNK 437; assay: In vitro antibacterial activity, agar dilution MIC; assay type: cell-based
# Description: as §1, §2
# [15] = system: Staph. aureus 642A; assay: In vitro antibacterial activity, agar dilution MIC; assay type: cell-based
# Description: as §1, §2
# [16] = system: P. aeruginosa 2862; assay: In vitro antibacterial activity, agar dilution MIC; assay type: cell-based
# Description: as §1, §2
# [17] = system: E. coli H560; assay: In vitro antibacterial activity, agar dilution MIC; assay type: cell-based
# Description: as §1, §2
# [18] = system: Strep. bovis A5169; assay: In vitro antibacterial activity, agar dilution MIC; assay type: cell-based
# Description: as §1, §2
# [19] = system: Candida albicans CCH 442; assay: In vitro antibacterial activity, agar dilution MIC
# Description: as §1, §2
# [20] = system: Strep. agalactiae CMX 508; assay: In vitro antibacterial activity, agar dilution MIC; assay type: cell-based
# Description: as §1, §2
# [21] = system: Strep. pyogenes 930 CONST; assay: In vitro antibacterial activity, agar dilution MIC; assay type: cell-based
# Description: as §1, §2
# [22] = system: Staph. aureus 5278; assay: In vitro antibacterial activity, agar dilution MIC; assay type: cell-based
# Description: as §1, §2
# [23] = system: Staph. aureus 1775 Cipro. R.; assay: In vitro antibacterial activity, agar dilution MIC; assay type: cell-based
# Description: as §1, §2
# [24] = system: Enter. aerogenes ATCC 13048; assay: In vitro antibacterial activity, agar dilution MIC; assay type: cell-based
# Description: as §1, §2
# [25] = system: Strep. pyogenes EES61; assay: In vitro antibacterial activity, agar dilution MIC; assay type: cell-based
# Description: as §1, §2
# [26] = system: M. luteus ATCC 4698; assay: In vitro antibacterial activity, agar dilution MIC; assay type: cell-based
# Description: as §1, §2
# [27] = system: Klebs. pneumoniae ATCC 8045; assay: In vitro antibacterial activity, agar dilution MIC; assay type: cell-based
# Description: as §1, §2
# [28] = system: Pseudomonas cepacia 296I; assay: In vitro antibacterial activity, agar dilution MIC; assay type: cell-based
# Description: as §1, §2
# [29] = system: P. aeruginosa A5007; assay: In vitro antibacterial activity, agar dilution MIC; assay type: cell-based
# Description: as §1, §2
# [30] = system: P. aeruginosa K799/WT; assay: In vitro antibacterial activity, agar dilution MIC; assay type: cell-based
# Description: as §1, §2
# [31] = system: Escherichia coli Juhl; assay: In vitro antibacterial activity, agar dilution MIC; assay type: cell-based
# Description: as §1, §2
# [32] = system: E. coli DC-2; assay: In vitro antibacterial activity, agar dilution MIC; assay type: cell-based
# Description: as §1, §2
# [33] = system: Myco. smegmatis ATCC 114; assay: In vitro antibacterial activity, agar dilution MIC; assay type: cell-based
# Description: as §1, §2
# [34] = system: Acinetob. calcoaceticus CMX 669; assay: In vitro antibacterial activity, agar dilution MIC; assay type: cell-based
# Description: as §1, §2
# [35] = system: P. aeruginosa 5263; assay: microbe, parasite or virus in culture; details: Pseudomonas aeruginosa
# Description: as §1, §2
# [36] = system: Staph. aureus NCTC10649M; assay: In vitro antibacterial activity, agar dilution MIC; assay type: cell-based; details: Staphylococcus aureus, NCTC10649M
# Description: as §1, §2
smiles,measurement,setting,value
"CC[C@@H]1CN(c2c(F)cn3c(=O)c(C(=O)O)cc(C4CC4)c3c2C)C[C@H]1N.Cl (single isomer, unassigned; diastereomer a) [Ex. 2, 8-(trans-3-amino-4-ethylpyrrolidin-1-yl)-1-cyclopropyl-7-fluoro-4H-9-methyl-4-oxo-quinolizine-3-carboxylic acid hydrochloride diastereomer A]",MIC,"[1]; P. aeruginosa BMH 10, BHI agar dilution, 20-24 hours",0.2 µg/mL
same,MIC,"[2]; E. coli SS, BHI agar dilution, 20-24 hours",0.001 µg/mL
same,MIC,"[3]; Nocardia asteroides ATCC 9970, BHI agar dilution, 20-24 hours",0.78 µg/mL
same,MIC,"[4]; Staph. epidermidis 3519, BHI agar dilution, 20-24 hours",0.05 µg/mL
same,MIC,[5],3.1 µg/mL
same,MIC,"[6]; Strep. pyogenes 2548 INDUC, BHI agar dilution, 20-24 hours",0.05 µg/mL
same,MIC,"[7]; Staph. aureus CMX 553, BHI agar dilution, 20-24 hours",0.02 µg/mL
same,MIC,"[8]; Staph. aureus ATCC 6538P, BHI agar dilution, 20-24 hours",0.02 µg/mL
same,MIC,"[9]; Entero. faecium ATCC 8043, BHI agar dilution, 20-24 hours",0.05 µg/mL
same,MIC,"[10]; Providencia stuartii CMX 640, BHI agar dilution, 20-24 hours",0.39 µg/mL
same,MIC,"[11]; P. aeruginosa K799/61, BHI agar dilution, 20-24 hours",0.1 µg/mL
same,MIC,"[12]; M. luteus ATCC 9341, BHI agar dilution, 20-24 hours",0.05 µg/mL
same,MIC,"[13]; Staph. aureus A5177, BHI agar dilution, 20-24 hours",0.02 µg/mL
same,MIC,"[14]; E. coli KNK 437, BHI agar dilution, 20-24 hours",0.1 µg/mL
same,MIC,"[15]; Staph. aureus 642A, BHI agar dilution, 20-24 hours",0.02 µg/mL
same,MIC,"[16]; P. aeruginosa 2862, BHI agar dilution, 20-24 hours",6.2 µg/mL
same,MIC,"[17]; E. coli H560, BHI agar dilution, 20-24 hours",0.01 µg/mL
same,MIC,"[18]; Strep. bovis A5169, BHI agar dilution, 20-24 hours",0.1 µg/mL
same,MIC,"[19]; Candida albicans CCH 442, BHI agar dilution, 20-24 hours",> 100 µg/mL
same,MIC,"[20]; Strep. agalactiae CMX 508, BHI agar dilution, 20-24 hours",0.02 µg/mL
same,MIC,"[21]; Strep. pyogenes 930 CONST, BHI agar dilution, 20-24 hours",0.05 µg/mL
same,MIC,"[22]; Staph. aureus 5278, BHI agar dilution, 20-24 hours",0.05 µg/mL
same,MIC,"[23]; Staph. aureus 1775 Cipro. R., BHI agar dilution, 20-24 hours",0.78 µg/mL
same,MIC,"[24]; Enter. aerogenes ATCC 13048, BHI agar dilution, 20-24 hours",0.1 µg/mL
same,MIC,"[25]; Strep. pyogenes EES61, BHI agar dilution, 20-24 hours",0.02 µg/mL
same,MIC,"[26]; M. luteus ATCC 4698, BHI agar dilution, 20-24 hours",0.05 µg/mL
same,MIC,"[27]; Klebs. pneumoniae ATCC 8045, BHI agar dilution, 20-24 hours",0.05 µg/mL
same,MIC,"[28]; Pseudomonas cepacia 296I, BHI agar dilution, 20-24 hours",1.56 µg/mL
same,MIC,"[29]; P. aeruginosa A5007, BHI agar dilution, 20-24 hours",0.39 µg/mL
same,MIC,"[30]; P. aeruginosa K799/WT, BHI agar dilution, 20-24 hours",0.78 µg/mL
same,MIC,"[31]; Escherichia coli Juhl, BHI agar dilution, 20-24 hours",0.01 µg/mL
same,MIC,"[32]; E. coli DC-2, BHI agar dilution, 20-24 hours",0.1 µg/mL
same,MIC,"[33]; Myco. smegmatis ATCC 114, BHI agar dilution, 20-24 hours",0.02 µg/mL
same,MIC,"[34]; Acinetob. calcoaceticus CMX 669, BHI agar dilution, 20-24 hours",0.05 µg/mL
"Cc1c(N2C[C@@H]3CCCN[C@@H]3C2)c(F)cn2c(=O)c(C(=O)O)cc(C3CC3)c12 [Ex. 1, 1-cyclopropyl-8-(S,S-2,8-diaza-8-bicyclo[4.3.0]-nonyl)-7-fluoro-4H-9-methyl-4-oxo-quinolizine-3-carboxylic acid hydrochloride]",MIC,"[1]; Pseudomonas aeruginosa, BMH10",0.1 µg/mL
same,MIC,[35],3.1 µg/mL
same,MIC,[2]; Escherichia coli,0.002 µg/mL
same,MIC,"[3]; Nocardia asteroides, ATCC9970",3.1 µg/mL
same,MIC,"[4]; Staphylococcus epidermidis, 3519",0.02 µg/mL
same,MIC,"[6]; Streptococcus pyogenes, 2548INDUC",0.02 µg/mL
same,MIC,"[7]; Staphylococcus aureus, CMX553",0.05 µg/mL
same,MIC,"[8]; Staphylococcus aureus, ATCC6538P",0.01 µg/mL
same,MIC,"[9]; Enterococcus faecium, ATCC8043",0.1 µg/mL
same,MIC,"[10]; Providencia stuartii, CMX640",0.39 µg/mL
same,MIC,"[11]; Pseudomonas aeruginosa, K799/61",0.02 µg/mL
same,MIC,"[12]; Micrococcus luteus, ATCC9341",0.1 µg/mL
same,MIC,"[13]; Staphylococcus aureus, A5177",0.02 µg/mL
same,MIC,"[14]; Escherichia coli, KNK437",0.05 µg/mL
same,MIC,"[15]; Staphylococcus aureus, 642A",0.02 µg/mL
same,MIC,"[16]; Pseudomonas aeruginosa, 2862",3.1 µg/mL
same,MIC,"[17]; Escherichia coli, H560",0.005 µg/mL
same,MIC,"[18]; Streptococcus equinus, A5169",0.05 µg/mL
same,MIC,"[19]; Candida albicans, CCH442",> 100 µg/mL
same,MIC,"[20]; Streptococcus agalactiae, CMX508",0.05 µg/mL
same,MIC,"[21]; Streptococcus pyogenes, 930CONST",0.05 µg/mL
same,MIC,"[22]; Staphylococcus aureus, 5278",0.01 µg/mL
same,MIC,[23]; Staphylococcus aureus,0.39 µg/mL
same,MIC,"[24]; Klebsiella aerogenes, ATCC13048",0.02 µg/mL
same,MIC,[36],0.01 µg/mL
same,MIC,"[25]; Streptococcus pyogenes, EES61",0.05 µg/mL
same,MIC,"[26]; Micrococcus luteus, ATCC4698",0.1 µg/mL
same,MIC,"[27]; Klebsiella pneumoniae, ATCC8045",0.01 µg/mL
same,MIC,"[28]; Burkholderia cepacia, 296I",0.78 µg/mL
same,MIC,"[29]; Pseudomonas aeruginosa, A5007",0.2 µg/mL
same,MIC,"[30]; Pseudomonas aeruginosa, K799/WT",0.2 µg/mL
same,MIC,[31]; Escherichia coli,0.005 µg/mL
same,MIC,"[32]; Escherichia coli, DC2",0.05 µg/mL
same,MIC,"[33]; Mycolicibacterium smegmatis, ATCC114",0.02 µg/mL
same,MIC,[34],0.02 µg/mL
